A short description of experiment [1]: liver lipid levels in hepatoma-bearing rats. Type of experiment: in vivo, rat. Particulars: mean ± SEM of 11 rats. Here is the method: (§1) Male Donryu rats of four weeks old were purchased from NRC Haruna, Gumma, Japan, and were preliminarily fed for 6 days in quintuple cages in a room with a controlled environment with light period of 8:00 to 20:00, room temperature of 22±1° C., and relative humidity of 60±5%. For the first 3 days, the animals were fed ad libitum with a stock pellet diet (CE-2; CLEA Japan, Tokyo), and for the next 3 days, they were fed a basal diet containing 20% milk casein (20C) (Table 1) ad libitum together with tap water in a glass container. Following the completion of this preparatory raising, the rats were divided into three groups (11 animals per group) with equal average body weights of the respective groups were equal, and 1.0×10^7 of AH109A cells suspended in PBS (−) were transplanted in the back of all the rats. From the time immediately after transplantation, in the respective experimental groups, the animals were fed the experimental diets shown in Table 2.
During the experimental period, the body weight, food intake and solid tumor size (sum of length, width and height) were measured everyday. On the day that the animals were killed, animals were deprived of experimental diets at 9:00, but freely given water until they were killed 4 hours later. Blood was collected from carotid, and the liver and solid tumors were excised. The collected blood was allowed to stand for approximately 2 hours at room temperature, and then centrifuged for 10 minutes at 3000 rpm (1750×g), 4° C., to obtain serum. This blood serum was frozen and stored at −20° C. The livers and solid tumors were washed with physiological saline, blotted on filter paper, and weighed. Furthermore, feces from the 19th to 21st days after transplantation were collected, and these feces were frozen and stored at −20° C. for the measurement of the amounts of steroids excreted from the body.
Total lipids were extracted from the liver for the measurement of lipid levels by the method of Folch et al. (FOLCH J, LEES M, SLOAN-STANLEY G H, A simple method for the isolation and purification of total lipids from animal tissues, J. Biol. Chem. 226: 497-509, 1957). Approximately 0.5 g of liver tissue was weighed out, this tissue was homogenized using a Polytron homogenizer (Type PT10/35, Kinematica, Switzerland) in 5 ml of methanol; then, 10 ml of chloroform was added and mixed, the resulting preparation was allowed to stand overnight, and then filtered. […]
The Ch content was measured by the Zak method (Zak B., Simple rapid microtechnic for serum total cholesterol, Am. J. Clin. Path. 27, 583-588, 1957). […] The resulting mixture was agitated and this preparation was allowed to stand until cool; then, the absorbance at 560 nm thereof was measured with Ch as a standard. […]

Experiment [2] can be described thus: serum lipid peroxide levels (TBARS) in hepatoma-bearing rats. It counts as in vivo, rat. Particulars: mean ± SEM of 11 rats. Here is the method:
as §1, with “2. During the experimental period, the body weight, food intake and solid tumor size (sum of length, width and height) were measured everyday. […] LPO levels were determined by measuring thiobarbituric acid-reactive substances (TBARS) by the Yagi fluorescence method using a lipid peroxide test Wako (Wako Pure Chemical Industries).” for “2.”

Regarding `O=C1OCC(Cc2cccc(O)c2)C1Cc1cccc(O)c1` (stereo not drawn) [Enterolactone, enterolactone], the “Liver lipid level Total cholesterol” value is listed as 5.15 ± 0.43 μmol/g liver in experiment [1] (diet 10 ppm) and 5.47 ± 0.40 μmol/g liver in experiment [1] (diet 100 ppm). The “Liver lipid level Triglyceride” value in experiment [1] (diet 10 ppm) stood at 43.8 ± 3.83 μmol/g liver; in experiment [1] (diet 100 ppm), 42.8 ± 7.05 μmol/g liver. Also, the “Serum TBARS” value came out at 7.31 ± 0.37 nmol/mL in experiment [2] (diet 10 ppm) and 6.87 ± 0.51 nmol/mL in experiment [2] (diet 100 ppm).

(Values after patent US20070117864A1, “Composition for preventing and treating hepatoma” (Tokyo University of Agr. & Tech. TLO Co., Ltd., priority 2003, published 2007).)
